Assay results reported in PMC12136037, “Type II kinase inhibitors that target Parkinson’s disease–associated LRRK2” (Science Advances, 2025).
Read-outs that look alike come from different tables or passages of the source.

Legend:
Assay in all cases: DSF 100 kinase selectivity screen;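 for dTm: compound tested at 20 µM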
Type in all cases: binding
[1] = target: T1, ~100 representative kinases (Homo sapiens, UniProt O15075); settings: Protein DCAMKL1; average of three replicates
T1 construct: Recombinant protein kinase domains with a concentration of 2 μM
T1 sequence (O15075 whole entry, the tested form may be a part): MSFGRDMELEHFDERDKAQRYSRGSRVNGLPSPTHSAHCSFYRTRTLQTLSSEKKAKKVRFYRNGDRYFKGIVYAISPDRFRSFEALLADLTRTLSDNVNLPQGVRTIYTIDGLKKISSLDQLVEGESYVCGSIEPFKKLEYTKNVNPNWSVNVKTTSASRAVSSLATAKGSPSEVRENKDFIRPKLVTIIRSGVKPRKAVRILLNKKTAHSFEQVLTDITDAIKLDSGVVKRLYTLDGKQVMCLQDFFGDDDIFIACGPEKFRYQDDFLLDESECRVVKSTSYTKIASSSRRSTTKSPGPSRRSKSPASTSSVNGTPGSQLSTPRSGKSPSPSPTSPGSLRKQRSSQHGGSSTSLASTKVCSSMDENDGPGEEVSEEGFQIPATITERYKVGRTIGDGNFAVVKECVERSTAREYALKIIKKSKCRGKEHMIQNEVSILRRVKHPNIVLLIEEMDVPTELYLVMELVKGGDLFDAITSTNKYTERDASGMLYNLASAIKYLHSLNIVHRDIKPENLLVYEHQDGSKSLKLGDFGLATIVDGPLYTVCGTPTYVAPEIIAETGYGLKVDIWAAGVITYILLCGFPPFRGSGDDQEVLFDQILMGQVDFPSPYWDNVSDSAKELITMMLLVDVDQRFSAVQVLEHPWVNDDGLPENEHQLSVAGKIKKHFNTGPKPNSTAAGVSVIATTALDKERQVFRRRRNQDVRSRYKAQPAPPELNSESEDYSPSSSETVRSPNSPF
Protocol: (§1) Recombinant protein kinase domains with a concentration of 2 μM were mixed with a 20 μM compound solution in dimethyl sulfoxide (DMSO), 20 mM Hepes (pH 7.5), and 500 mM NaCl. SYPRO Orange (5000×, Invitrogen) was added as a fluorescence probe (1μl/ml). Subsequently, temperature-dependent protein unfolding profiles were measured using the QuantStudio 5 realtime PCR machine (Thermo Fisher Scientific, Waltham, MA, USA). […] The temperature was raised with a step rate of 3°C/min. […] Differences in melting temperature are given as ΔTm values in degrees Celsius. […]

[2] = target: T2, ~100 representative kinases (Homo sapiens, UniProt O94804); settings: Protein STK10; DSF; average of three replicates
T2 construct: Recombinant protein kinase domains with a concentration of 2 μM
T2 sequence (O94804 whole entry, the tested form may be a part): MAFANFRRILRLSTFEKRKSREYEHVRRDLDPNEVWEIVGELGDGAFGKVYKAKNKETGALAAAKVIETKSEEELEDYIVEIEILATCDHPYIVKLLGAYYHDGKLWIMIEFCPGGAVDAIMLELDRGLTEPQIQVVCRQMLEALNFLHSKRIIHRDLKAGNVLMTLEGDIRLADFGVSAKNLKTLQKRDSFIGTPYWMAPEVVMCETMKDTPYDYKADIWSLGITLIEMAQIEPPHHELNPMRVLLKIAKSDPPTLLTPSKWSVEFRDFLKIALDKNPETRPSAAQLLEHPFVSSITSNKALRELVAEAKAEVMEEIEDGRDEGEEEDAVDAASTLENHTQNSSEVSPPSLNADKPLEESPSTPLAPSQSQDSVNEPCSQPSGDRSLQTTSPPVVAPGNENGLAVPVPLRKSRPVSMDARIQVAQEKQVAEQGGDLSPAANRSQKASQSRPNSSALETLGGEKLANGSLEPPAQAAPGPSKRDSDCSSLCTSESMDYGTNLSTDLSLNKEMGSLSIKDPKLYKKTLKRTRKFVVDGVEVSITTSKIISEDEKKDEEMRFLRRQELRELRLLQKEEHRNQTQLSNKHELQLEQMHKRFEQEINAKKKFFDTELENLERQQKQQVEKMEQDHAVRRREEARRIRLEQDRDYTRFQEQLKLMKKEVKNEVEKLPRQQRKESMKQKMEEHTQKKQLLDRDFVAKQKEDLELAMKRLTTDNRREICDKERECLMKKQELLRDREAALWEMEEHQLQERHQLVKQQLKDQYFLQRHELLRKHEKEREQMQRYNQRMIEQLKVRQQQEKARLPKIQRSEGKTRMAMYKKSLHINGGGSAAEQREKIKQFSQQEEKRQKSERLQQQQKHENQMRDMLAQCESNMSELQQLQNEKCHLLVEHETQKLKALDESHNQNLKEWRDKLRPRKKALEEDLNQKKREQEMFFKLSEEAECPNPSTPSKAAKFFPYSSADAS
Protocol: as §1

[3] = target: T3, ~100 representative kinases (Homo sapiens, UniProt P07332); settings: protein FESA; average of three replicates
T3 construct: Recombinant protein kinase domains with a concentration of 2 μM
Protocol: as §1

[4] = target: T4, ~100 representative kinases (Homo sapiens, UniProt P11362); settings: protein FGFR1; average of three replicates
T4 construct: Recombinant protein kinase domains with a concentration of 2 μM
Protocol: as §1

[5] = target: T5, ~100 representative kinases (Homo sapiens, UniProt P19784); settings: Protein CK2A2; average of three replicates
T5 construct: Recombinant protein kinase domains with a concentration of 2 μM
T5 sequence (P19784 whole entry, the tested form may be a part): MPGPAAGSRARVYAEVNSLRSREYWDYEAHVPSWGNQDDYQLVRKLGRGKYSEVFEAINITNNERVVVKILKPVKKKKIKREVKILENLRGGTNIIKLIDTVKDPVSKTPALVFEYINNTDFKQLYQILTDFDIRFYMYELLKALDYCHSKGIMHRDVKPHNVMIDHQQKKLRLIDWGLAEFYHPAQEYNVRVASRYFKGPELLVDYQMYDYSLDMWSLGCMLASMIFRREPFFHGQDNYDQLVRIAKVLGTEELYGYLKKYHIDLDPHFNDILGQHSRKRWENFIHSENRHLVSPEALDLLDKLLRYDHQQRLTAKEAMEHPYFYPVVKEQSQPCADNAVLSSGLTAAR
Protocol: as §1

[6] = target: T6, ~100 representative kinases (Homo sapiens, UniProt P48730); settings: Protein CSNK1D; average of three replicates
T6 construct: Recombinant protein kinase domains with a concentration of 2 μM
T6 sequence (P48730 whole entry, the tested form may be a part): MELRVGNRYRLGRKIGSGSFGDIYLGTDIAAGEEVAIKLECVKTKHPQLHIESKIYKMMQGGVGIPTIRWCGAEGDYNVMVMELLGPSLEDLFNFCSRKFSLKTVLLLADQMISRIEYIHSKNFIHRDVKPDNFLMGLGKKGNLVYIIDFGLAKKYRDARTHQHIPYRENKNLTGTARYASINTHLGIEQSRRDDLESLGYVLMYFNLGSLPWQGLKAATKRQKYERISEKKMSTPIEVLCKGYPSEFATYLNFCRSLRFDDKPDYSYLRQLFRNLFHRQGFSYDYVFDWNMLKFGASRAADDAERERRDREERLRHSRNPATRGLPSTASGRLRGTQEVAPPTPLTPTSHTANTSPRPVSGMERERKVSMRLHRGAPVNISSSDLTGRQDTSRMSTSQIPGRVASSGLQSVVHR
Protocol: as §1

[7] = target: T7, ~100 representative kinases (Homo sapiens, UniProt P49759); settings: Protein CLK1; average of three replicates
T7 construct: Recombinant protein kinase domains with a concentration of 2 μM
T7 sequence (P49759 whole entry, the tested form may be a part): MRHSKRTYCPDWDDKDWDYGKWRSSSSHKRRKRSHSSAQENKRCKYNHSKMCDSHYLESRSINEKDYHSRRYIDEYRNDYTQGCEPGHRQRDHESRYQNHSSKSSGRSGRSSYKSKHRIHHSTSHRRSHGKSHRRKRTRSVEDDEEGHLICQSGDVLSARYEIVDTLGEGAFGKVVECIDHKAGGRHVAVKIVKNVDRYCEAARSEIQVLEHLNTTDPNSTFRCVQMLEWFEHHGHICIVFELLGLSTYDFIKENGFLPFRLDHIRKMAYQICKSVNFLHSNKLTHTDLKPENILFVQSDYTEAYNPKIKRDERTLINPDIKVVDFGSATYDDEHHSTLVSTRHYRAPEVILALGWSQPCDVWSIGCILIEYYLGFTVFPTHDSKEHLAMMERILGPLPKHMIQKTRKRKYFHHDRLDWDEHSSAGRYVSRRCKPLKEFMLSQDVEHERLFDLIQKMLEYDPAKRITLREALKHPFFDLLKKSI
Protocol: as §1

[8] = target: T8, ~100 representative kinases (Homo sapiens, UniProt Q5VT25); settings: Protein CDC42BPA; average of three replicates
T8 construct: Recombinant protein kinase domains with a concentration of 2 μM
T8 sequence (Q5VT25 whole entry, the tested form may be a part): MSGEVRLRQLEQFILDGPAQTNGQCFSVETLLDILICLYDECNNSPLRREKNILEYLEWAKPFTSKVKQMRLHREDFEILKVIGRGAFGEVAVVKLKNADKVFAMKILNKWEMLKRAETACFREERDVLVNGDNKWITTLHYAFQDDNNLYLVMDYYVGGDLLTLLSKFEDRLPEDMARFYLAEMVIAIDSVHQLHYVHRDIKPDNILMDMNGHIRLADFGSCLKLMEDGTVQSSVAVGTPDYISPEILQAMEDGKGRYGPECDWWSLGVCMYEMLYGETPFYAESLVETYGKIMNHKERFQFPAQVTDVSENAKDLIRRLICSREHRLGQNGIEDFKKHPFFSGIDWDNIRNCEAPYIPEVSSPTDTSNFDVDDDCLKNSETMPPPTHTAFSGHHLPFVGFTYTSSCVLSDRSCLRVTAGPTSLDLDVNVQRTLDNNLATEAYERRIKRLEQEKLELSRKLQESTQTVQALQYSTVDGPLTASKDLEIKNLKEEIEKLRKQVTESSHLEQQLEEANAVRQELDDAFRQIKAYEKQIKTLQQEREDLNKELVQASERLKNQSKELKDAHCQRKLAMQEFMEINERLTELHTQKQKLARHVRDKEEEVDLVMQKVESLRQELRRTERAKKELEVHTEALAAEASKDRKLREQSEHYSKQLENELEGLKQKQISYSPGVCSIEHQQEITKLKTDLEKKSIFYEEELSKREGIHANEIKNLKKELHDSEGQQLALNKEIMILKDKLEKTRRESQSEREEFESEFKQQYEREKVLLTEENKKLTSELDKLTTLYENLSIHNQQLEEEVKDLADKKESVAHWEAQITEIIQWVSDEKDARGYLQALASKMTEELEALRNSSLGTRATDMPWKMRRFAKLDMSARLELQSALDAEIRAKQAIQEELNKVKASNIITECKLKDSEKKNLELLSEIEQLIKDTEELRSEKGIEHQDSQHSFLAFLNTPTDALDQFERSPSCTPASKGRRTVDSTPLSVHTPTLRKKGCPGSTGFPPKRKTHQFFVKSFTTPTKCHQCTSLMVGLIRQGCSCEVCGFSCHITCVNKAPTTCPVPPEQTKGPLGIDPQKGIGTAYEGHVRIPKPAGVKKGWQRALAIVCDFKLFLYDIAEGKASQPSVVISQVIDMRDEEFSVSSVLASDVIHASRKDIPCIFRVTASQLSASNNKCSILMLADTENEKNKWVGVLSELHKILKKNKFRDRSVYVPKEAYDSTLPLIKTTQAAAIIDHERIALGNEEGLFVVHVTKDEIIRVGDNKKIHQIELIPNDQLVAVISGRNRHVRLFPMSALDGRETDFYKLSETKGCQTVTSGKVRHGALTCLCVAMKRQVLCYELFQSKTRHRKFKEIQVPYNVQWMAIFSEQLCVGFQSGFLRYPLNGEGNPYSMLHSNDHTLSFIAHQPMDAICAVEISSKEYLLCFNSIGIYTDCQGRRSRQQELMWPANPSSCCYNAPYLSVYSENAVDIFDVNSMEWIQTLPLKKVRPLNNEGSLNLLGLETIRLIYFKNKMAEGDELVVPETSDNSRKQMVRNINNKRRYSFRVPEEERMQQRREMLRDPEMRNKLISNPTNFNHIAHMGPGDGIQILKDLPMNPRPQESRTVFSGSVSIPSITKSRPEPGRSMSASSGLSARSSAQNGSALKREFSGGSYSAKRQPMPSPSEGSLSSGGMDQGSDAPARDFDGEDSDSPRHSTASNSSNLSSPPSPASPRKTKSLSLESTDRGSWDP
Protocol: as §1

[9] = target: T9, ~100 representative kinases (Homo sapiens, UniProt Q96PY6); settings: protein NEK1; average of three replicates
T9 construct: Recombinant protein kinase domains with a concentration of 2 μM
T9 sequence (Q96PY6 1-1258): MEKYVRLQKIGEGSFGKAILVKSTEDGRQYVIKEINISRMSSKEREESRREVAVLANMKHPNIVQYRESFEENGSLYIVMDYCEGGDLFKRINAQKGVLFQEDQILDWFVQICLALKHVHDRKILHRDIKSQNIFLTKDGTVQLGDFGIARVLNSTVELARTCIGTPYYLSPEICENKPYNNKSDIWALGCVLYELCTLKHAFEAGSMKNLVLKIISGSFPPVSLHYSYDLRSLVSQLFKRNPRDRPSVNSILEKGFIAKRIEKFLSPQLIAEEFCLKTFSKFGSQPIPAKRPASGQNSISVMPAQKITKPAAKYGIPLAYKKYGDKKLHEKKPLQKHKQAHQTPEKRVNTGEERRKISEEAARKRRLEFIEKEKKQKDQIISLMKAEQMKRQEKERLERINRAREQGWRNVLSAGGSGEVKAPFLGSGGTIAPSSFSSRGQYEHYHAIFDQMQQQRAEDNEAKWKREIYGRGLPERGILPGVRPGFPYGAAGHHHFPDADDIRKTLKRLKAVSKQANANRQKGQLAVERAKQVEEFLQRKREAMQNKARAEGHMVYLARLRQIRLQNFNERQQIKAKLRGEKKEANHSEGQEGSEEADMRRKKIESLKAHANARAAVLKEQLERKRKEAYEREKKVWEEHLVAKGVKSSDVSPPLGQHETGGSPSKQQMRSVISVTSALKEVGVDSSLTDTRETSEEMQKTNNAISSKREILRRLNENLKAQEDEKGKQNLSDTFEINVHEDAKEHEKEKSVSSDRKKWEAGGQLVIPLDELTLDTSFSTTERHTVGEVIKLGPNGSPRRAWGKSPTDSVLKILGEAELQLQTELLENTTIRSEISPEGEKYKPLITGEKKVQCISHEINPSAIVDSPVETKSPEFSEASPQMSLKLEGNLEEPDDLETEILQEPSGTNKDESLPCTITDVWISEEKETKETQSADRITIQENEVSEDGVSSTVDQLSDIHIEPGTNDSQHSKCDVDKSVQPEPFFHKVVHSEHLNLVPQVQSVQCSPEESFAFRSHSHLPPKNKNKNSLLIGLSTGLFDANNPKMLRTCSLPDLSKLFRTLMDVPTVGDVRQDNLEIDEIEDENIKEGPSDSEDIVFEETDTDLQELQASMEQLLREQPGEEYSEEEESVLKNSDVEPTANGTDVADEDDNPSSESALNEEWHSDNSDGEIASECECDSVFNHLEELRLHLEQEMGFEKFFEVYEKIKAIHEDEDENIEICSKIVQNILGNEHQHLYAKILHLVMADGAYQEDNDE
Protocol: as §1

[10] = target: T10, ~100 representative kinases (Homo sapiens, UniProt Q9H2G2); settings: Protein SLK; DSF; average of three replicates
T10 construct: Recombinant protein kinase domains with a concentration of 2 μM
Protocol: as §1

[11] = target: T11, ~100 representative kinases (Homo sapiens, UniProt Q9UEE5); settings: Protein STK17A; DSF; average of three replicates
T11 construct: Recombinant protein kinase domains with a concentration of 2 μM
T11 sequence (Q9UEE5 1-414): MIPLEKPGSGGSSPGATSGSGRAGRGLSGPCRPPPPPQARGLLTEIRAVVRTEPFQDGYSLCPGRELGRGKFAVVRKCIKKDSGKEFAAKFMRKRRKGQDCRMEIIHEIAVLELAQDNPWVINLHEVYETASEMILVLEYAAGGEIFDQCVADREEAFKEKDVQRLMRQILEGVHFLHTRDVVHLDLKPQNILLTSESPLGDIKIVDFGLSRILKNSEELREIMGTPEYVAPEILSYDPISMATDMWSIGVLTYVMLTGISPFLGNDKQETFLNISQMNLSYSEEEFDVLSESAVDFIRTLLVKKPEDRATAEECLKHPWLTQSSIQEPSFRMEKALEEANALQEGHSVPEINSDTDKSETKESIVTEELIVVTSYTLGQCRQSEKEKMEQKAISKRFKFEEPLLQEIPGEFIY
Protocol: as §1

[12] = system: ~100 representative kinases; settings: for dTm: Protein BRD, average of three replicates
Protocol: as §1

[13] = number of kinases with thermal shift >5 K divided by total number of kinases screened
[14] = number of proteins of the DSF panel with dTm >5K
[15] = selectivity score: # >5K divided by # of proteins tested in the DSF panel

| SMILES | dTm [1] [K] | dTm [2] [K] | dTm [3] [K] | dTm [4] [K] | dTm [5] [K] | dTm [6] [K] | dTm [7] [K] | dTm [8] [K] | dTm [9] [K] | dTm [10] [K] | dTm [11] [K] | dTm [12] [K] | S(5K) [12, 13] | # >5K [12, 14] | S(5K) [12, 15] | # >5K [12] | S(5K) [12] |
| --- | --- | --- | --- | --- | --- | --- | --- | --- | --- | --- | --- | --- | --- | --- | --- | --- | --- |
| COc1cc(C(=O)N2CCOCC2)c(F)cc1Nc1nc(N(C)C)c2c(Cl)c[nH]c2n1 [Compound 36] | 2.05 | -1.96 | 2.67 | -0.10 | 1.00 | 4.03 | 8.96 | -0.93 | 0.22 | -1.49 | 0.25 | -0.29 | 0.14 | 14 | 0.139 | – | – |
| COc1cc(S(C)(=O)=O)ccc1Nc1nc(N(C)C)c2c(Cl)c[nH]c2n1 [Compound 37] | -0.34 | -1.61 | 2.13 | 0.09 | 1.16 | 2.29 | 5.62 | -0.18 | 0.73 | -0.88 | -0.19 | 0.52 | 0.05 | 5 | 0.050 | – | – |
| COc1cc2c(Oc3ccc(NC(=O)C4(C(=O)Nc5ccc(F)cc5)CC4)cc3F)ccnc2cc1OCCCN1CCOCC1 [Foretinib, reference compound] | 0.55 | 16.81 | 6.46 | 5.33 | 0.00 | 0.91 | 6.72 | 0.32 | 0.60 | 8.07 | -0.14 | – | – | – | – | 30 | 0.300 |
| CCNc1nc(Nc2cc(F)c(C(=O)N3CCOCC3)cc2OC)ncc1C(F)(F)F [GNE-7915] | 2.14 | -0.11 | 2.48 | 0.25 | 2.65 | 1.81 | 5.28 | -0.72 | 0.68 | 0.62 | 0.32 | -0.21 | – | 3 | 0.029 | – | – |
| C[C@@H]1CN(c2cc(-c3n[nH]c4ccc(OC5(C)CC5)cc34)ncn2)C[C@H](C)O1 [MLi2] | 0.51 | -0.79 | 1.83 | -0.19 | -0.31 | 0.66 | 3.00 | -0.93 | 0.27 | -1.23 | -0.26 | 0.12 | – | 2 | 0.019 | – | – |
| Cn1cc(-c2c[nH]c3ncnc(N4CCOCC4)c23)cc1C#N [PFE-360] | 0.62 | 7.58 | 0.78 | 0.13 | 0.26 | 0.63 | 7.59 | -1.84 | 0.39 | 3.08 | 0.43 | -0.51 | – | 12 | 0.118 | – | – |
